In US11932845B2, “Microorganisms and methods for production of 4-hydroxybutyrate, 1,4-butanediol and related compounds” (priority 2012, dated 2024):
Where two headings read alike, the source gives them in different places.

What was measured:
homoserine kinase = homoserine kinase (Escherichia coli, UniProt P00547); conditions: cited from earlier work
[1] = system: alcohol dehydrogenase from Brevibacterium sp KU; conditions: oxidation of alcohols, cited from earlier work; for Relative Activity: 2-phenylethanol taken as 100%
aminotransferase = conditions: activity considered 100% on tyrosine; cited from earlier work
[2] = system: L(+)-lactate dehydrogenase from A. eutrophus; conditions: compared with that on pyruvate; cited from earlier work
[3] = molecular target: T1, L(+)-lactate dehydrogenase from rabbit muscle (Oryctolagus cuniculus, UniProt P13491); conditions: compared with that on pyruvate; cited from earlier work
T1 construct: host or cells: rabbit muscle

[4] = system: D(−)-lactate dehydrogenase from L. leichmanii; conditions: compared with that on pyruvate; cited from earlier work
cytochrome-bd oxidases = conditions: cited from earlier work; for Km: pH 7
Alcohol dehydrogenase = Alcohol dehydrogenase (ADH) assay in the reductive direction, cell extracts; conditions: cell extracts from MG1655 lacI^Q containing pZA33
Protocol: Alcohol (ADH) and aldehyde (ALD) dehydrogenase was assayed in the reductive direction using a procedure adapted from several literature sources (Durre et al., FEMS Microbiol. Rev. 17:251-262 (1995); Palosaari and Rogers, J. Bacteriol. 170:2971-2976 (1988) and Welch et al., Arch. Biochem. Biophys. 273:309-318 (1989). The oxidation of NADH is followed by reading absorbance at 340 nm every four seconds for a total of 240 seconds at room temperature. The reductive assays were performed in 100 mM MOPS (adjusted to pH 7.5 with KOH), 0.4 mM NADH, and from 1 to 50 μl of cell extract. The reaction is started by adding the following reagents: 100 μl of 100 mM acetaldehyde or butyraldehyde for ADH, or 100 μl of 1 mM acetyl-CoA or butyryl-CoA for ALD. The Spectrophotometer is quickly blanked and then the kinetic read is started. The resulting slope of the reduction in absorbance at 340 nm per minute, along with the molar extinction coefficient of NAD(P)H at 340 nM (6000) and the protein concentration of the extract, can be used to determine the specific activity.
Gene candidates for the 4-HB to BDO conversion pathway were next tested for activity when expressed in the E. coli host MG1655 lacI^Q. Recombinant strains containing each gene candidate expressed on pZA33 were grown in the presence of 0.25 mM IPTG for four hours at 37° C. to fully induce expression of the enzyme. Four hours after induction, cells were harvested and assayed for ADH and ALD activity as described above.

[5] = system: 4-HB to BDO conversion pathway; test: Production of BDO from 10 mM 4-HB in recombinant E. coli strains; conditions: for BDO: 10 mM 4-HB, 24 hours, cat2 (0034) on pZA33
Protocol: For the BDO production experiments, cat2 from Porphyromonas gingivalis W83 (gene 0034) was included on pZA33 for the conversion of 4-HB to 4-HB-CoA, while the candidate dehydrogenase genes were expressed on pZE13. The host strain was MG1655 lacI^Q. Along with the alcohol and aldehyde dehydrogenase candidates, we also tested the ability of CoA-dependent succinic semialdehyde dehydrogenases (sucD) to function in this step, due to the similarity of the substrates. Cells were grown to an OD of about 0.5 in LB medium supplemented with 10 mM 4-HB, induced with 1 mM IPTG, and culture broth samples taken after 24 hours and analyzed for BDO as described below.
Finally, the construct was tested for participation in the conversion of 4-HB to BDO. Host strains were transformed with the pZA33-0020-0021 construct described and pZE13-0002, and compared to use of cat2 in BDO production using the aerobic procedure used above in FIG. 5.

homoserine kinase, sequence (P00547 whole entry): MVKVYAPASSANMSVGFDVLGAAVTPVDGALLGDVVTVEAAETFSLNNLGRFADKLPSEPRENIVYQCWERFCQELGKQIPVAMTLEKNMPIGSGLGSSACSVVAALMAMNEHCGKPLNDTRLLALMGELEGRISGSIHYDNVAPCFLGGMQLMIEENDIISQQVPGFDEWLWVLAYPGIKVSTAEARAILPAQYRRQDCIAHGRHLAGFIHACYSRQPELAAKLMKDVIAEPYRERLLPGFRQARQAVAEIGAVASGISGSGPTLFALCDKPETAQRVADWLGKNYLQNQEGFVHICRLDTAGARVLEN

## CCCCOC(=O)[C@@H](N)CCO [L-homserine n-butyl ester]
Homoserine kinase
  % kcat: 160%
  Km: 5800 ± 800 µM

## OCCCc1ccccc1 [3-Phenylpropanol]
[1]
  Relative Activity: 135 0%
  Km: 33 µM

## CSCC[C@H](N)C(=O)O [methionine]
aminotransferase
  activity: 25%

## CC(C)CC(=O)C(=O)O [4-Methyl-2-oxopentanoate]
[2]
  Activity (%) of L(+)-lactate dehydrogenase from A. eutrophus: 39.0%
[3]
  Activity (%) of L(+)-lactate dehydrogenase from rabbit muscle: 1.4%
[4]
  Activity (%) of D(−)-lactate dehydrogenase from L. leichmanii: 1.1%

## CCCCCCCCCCCCO [Sample 1-Dodecanol, 1-Dodecanol]
[1]
  Relative Activity: 68 0%

## N[C@@H](Cc1ccccc1)C(=O)O [phenylalanine]
aminotransferase
  activity: 90%

## CCC(=O)C(=O)O [2-Oxobutyrate]
[2]
  Activity (%) of L(+)-lactate dehydrogenase from A. eutrophus: 107.0%
[3]
  Activity (%) of L(+)-lactate dehydrogenase from rabbit muscle: 18.6%
[4]
  Activity (%) of D(−)-lactate dehydrogenase from L. leichmanii: 1.1%

## CCCOC(=O)[C@@H](N)CCO [L-homoserine n-propyl ester]
Homoserine kinase
  % kcat: 76%

## CCCCCCCCO [Sample 1-Octanol, 1-Octanol]
[1]
  Relative Activity: 101 0%

## CCCCO [Sample 1-Butanol, 1-Butanol]
[1]
  Relative Activity: 111 0%

## C[C@@H](CO)c1ccccc1 [(R)-2-Phenylpropanol]
[1]
  Relative Activity: 63 0%
  Km: 20 µM

## N[C@@H](CC=O)C(=O)O [L-aspartate β-semialdehyde]
Homoserine kinase
  % kcat: 8.2%
  Km: 280 ± 20 µM

## CC(O)c1ccccc1 (stereo not drawn) [1-Phenylethanol]
[1]
  Relative Activity: 46 0%

## O=CC(=O)O [Glyoxylate]
[2]
  Activity (%) of L(+)-lactate dehydrogenase from A. eutrophus: 8.7%
[4]
  Activity (%) of D(−)-lactate dehydrogenase from L. leichmanii: 5.0%

## O=C(O)C(=O)CF [3-Fluoropyruvate]
[2]
  Activity (%) of L(+)-lactate dehydrogenase from A. eutrophus: 33.6%
[3]
  Activity (%) of L(+)-lactate dehydrogenase from rabbit muscle: 74.3%
[4]
  Activity (%) of D(−)-lactate dehydrogenase from L. leichmanii: 40.0%

## CC(C)C(=O)C(=O)O [3-Methyl-2-oxobutyrate]
[2]
  Activity (%) of L(+)-lactate dehydrogenase from A. eutrophus: 28.5%
[3]
  Activity (%) of L(+)-lactate dehydrogenase from rabbit muscle: 0.0%
[4]
  Activity (%) of D(−)-lactate dehydrogenase from L. leichmanii: 0.0%

## N[C@@H](Cc1ccc(O)cc1)C(=O)O [tyrosine]
aminotransferase
  activity: 100%

## C[C@H](CO)c1ccccc1 [(S)-2-Phenylpropanol]
[1]
  Relative Activity: 156 0%
  Km: 157 µM

## CCCC(=O)C(=O)O [2-Oxovalerate]
[2]
  Activity (%) of L(+)-lactate dehydrogenase from A. eutrophus: 125.0%
[3]
  Activity (%) of L(+)-lactate dehydrogenase from rabbit muscle: 0.7%
[4]
  Activity (%) of D(−)-lactate dehydrogenase from L. leichmanii: 0.0%

## CC(C)OC(=O)[C@@H](N)CCO [L-homoserine isopropyl ester]
Homoserine kinase
  % kcat: 74%

## N[C@@H](CCO)C(=O)O [L-homoserine]
Homoserine kinase
  % kcat: 100%

## COC(=O)[C@@H](N)CCO [L-homoserine methyl ester]
Homoserine kinase
  % kcat: 80%

## Cytochrome bd-II
cytochrome-bd oxidases
  In vivo sp act: 70 ± 12 mol O2/mol cytochrome bd/s
  Vmax: 818 ± 75 mol O/mol cytochrome bd/s
cytochrome-bd oxidases; read-out: Km (O2) at pH 7
  Km: 2 ± 0.3 µM
cytochrome-bd oxidases; read-out: Km (UQ-H2) at pH 7
  Km: 250 ± 45 µM

## N[C@@H](CCCO)C(=O)O [L-2-amino-5-hydroxyvalerate]
Homoserine kinase
  % kcat: 9.9%
  Km: 1100 ± 500 µM

## CCOC(=O)[C@@H](N)CCO [L-homoserine ethyl ester]
Homoserine kinase
  % kcat: 74%

## CCC(C)C(=O)C(=O)O (stereo not drawn) [3-Methyl-2-oxovalerate]
[2]
  Activity (%) of L(+)-lactate dehydrogenase from A. eutrophus: 5.3%
[3]
  Activity (%) of L(+)-lactate dehydrogenase from rabbit muscle: 0.0%
[4]
  Activity (%) of D(−)-lactate dehydrogenase from L. leichmanii: 0.0%

## N[C@H](CCO)C(=O)O [D-homoserine]
Homoserine kinase
  % kcat: 32%

## CC(C)C[C@H](N)C(=O)O [leucine]
aminotransferase
  activity: 25%

## CC(C)COC(=O)[C@@H](N)CCO [L-homoserine isobutyl ester]
Homoserine kinase
  % kcat: 84%

## N[C@H](CO)CCO [L-2-amino-1,4-butanediol]
Homoserine kinase
  % kcat: 7.9%

## CCO [Ethanol]
[1]
  Relative Activity: 76 0%

## N[C@@H](Cc1c[nH]c2ccccc12)C(=O)O [tryptophan]
aminotransferase
  activity: 85%

## CC(C)O [Sample 2-Propanol, 2-Propanol]
[1]
  Relative Activity: 54 0%

B1: 0013: Gene ID 0013, bdhB, Clostridium acetobutylicum ATCC 824, Butanol dehydrogenase II (protein, UniProt Q04945 1-390, looked up)
NADH-dependent butanol …: MVDFEYSIPTRIFFGKDKINVLGRELKKYGSKVLIVYGGGSIKRNGIYDKAVSILEKNSIKFYELAGVEPNPRVTTVEKGVKICRENGVEVVLAIGGGSAIDCAKVIAAACEYDGNPWDIVLDGSKIKRVLPIASILTIAATGSEMDTWAVINNMDTNEKLIAAHPDMAPKFSILDPTYTYTVPTNQTAAGTADIMSHIFEVYFSNTKTAYLQDRMAEALLRTCIKYGGIALEKPDDYEARANLMWASSLAINGLLTYGKDTNWSVHLMEHELSAYYDITHGVGLAILTPNWMEYILNNDTVYKFVEYGVNVWGIDKEKNHYDIAHQAIQKTRDYFVNVLGLPSRLRDVGIEEEKLDIMAKESVKLTGGTIGNLRPVNASEVLQIFKKSV
Alcohol dehydrogenase
  Alcohol dehydrogenase, Substrate Acetaldehyde: 0.0142 μmol min^−1 mg cell protein^−1
  Alcohol dehydrogenase, Substrate Butyraldehyde: 0.0130 μmol min^−1 mg cell protein^−1

B2: 0008n: Gene ID 0008 (native), sucD, Clostridium kluyveri DSM 555, Succinic semialdehyde dehydrogenase (CoA-dependent) (protein, UniProt P38947 1-453, looked up)
Succinate-semialdehyde …: MSNEVSIKELIEKAKVAQKKLEAYSQEQVDVLVKALGKVVYDNAEMFAKEAVEETEMGVYEDKVAKCHLKSGAIWNHIKDKKTVGIIKEEPERALVYVAKPKGVVAATTPITNPVVTPMCNAMAAIKGRNTIIVAPHPKAKKVSAHTVELMNAELKKLGAPENIIQIVEAPSREAAKELMESADVVIATGGAGRVKAAYSSGRPAYGVGPGNSQVIVDKGYDYNKAAQDIITGRKYDNGIICSSEQSVIAPAEDYDKVIAAFVENGAFYVEDEETVEKFRSTLFKDGKINSKIIGKSVQIIADLAGVKVPEGTKVIVLKGKGAGEKDVLCKEKMCPVLVALKYDTFEEAVEIAMANYMYEGAGHTAGIHSDNDENIRYAGTVLPISRLVVNQPATTAGGSFNNGFNPTTTLGCGSWGRNSISENLTYEHLINVSRIGYFNKEAKVPSYEEIWG
[5]; Aerobic
  BDO/OD: 47.6
  BDO: 255.8 µM
[5]; Anaerobic
  BDO/OD: 98.1
  BDO: 60.8 µM
[5]; Microaerobic
  BDO/OD: 41.9
  BDO: 127.9 µM
